Results published in the NIST ThermoML archive (doi:10.1021/je1011339).
± gives the expanded uncertainty stated by the source.

Assays:
[1] = refractive index (Na D-line) (dimensionless); details: 298.15 K; 101.33 kPa; Liquid; Standard Abbe refractometry
[2] = 298.15 K; 101.33 kPa; Liquid; Vibrating tube method

Compound	refractive index [1]	mass density [2] [kg/m3]
C=C(C)[C@H]1CC=C(C)CC1 [(R)-1-methyl-4-(1-methylethenyl)cyclohexene]	1.47081 ± 0.00068	838.68 ± 1.4
CCCCCC[n+]1ccn(C)c1.O=S(=O)([N-]S(=O)(=O)C(F)(F)F)C(F)(F)F	1.42879 ± 0.00033	1372.09 ± 0.28
C=CC(C)(O)CCC=C(C)C (stereo not given) [3,7-dimethyl-1,6-octadien-3-ol]	1.45961 ± 0.00068	856.83 ± 1.4
CCCCCCCCCCn1cc[n+](C)c1.O=S(=O)([N-]S(=O)(=O)C(F)(F)F)C(F)(F)F	1.43584 ± 0.00033	1278.4 ± 0.23
CCn1cc[n+](C)c1.O=S(=O)([N-]S(=O)(=O)C(F)(F)F)C(F)(F)F	1.42298 ± 0.00068	1518.91 ± 0.36
